Data on one compound can be found in article PMC7594840, “Identification of histone deacetylase inhibitors with (arylidene)aminoxy scaffold active in uveal melanoma cell lines” (Journal of Enzyme Inhibition and Medicinal Chemistry, 2020).

For this assay, the target named is T1, HDAC6 (Homo sapiens, UniProt Q9UBN7).
T1 construct: purchased BPS Bioscience
T1 sequence (Q9UBN7 1-1215): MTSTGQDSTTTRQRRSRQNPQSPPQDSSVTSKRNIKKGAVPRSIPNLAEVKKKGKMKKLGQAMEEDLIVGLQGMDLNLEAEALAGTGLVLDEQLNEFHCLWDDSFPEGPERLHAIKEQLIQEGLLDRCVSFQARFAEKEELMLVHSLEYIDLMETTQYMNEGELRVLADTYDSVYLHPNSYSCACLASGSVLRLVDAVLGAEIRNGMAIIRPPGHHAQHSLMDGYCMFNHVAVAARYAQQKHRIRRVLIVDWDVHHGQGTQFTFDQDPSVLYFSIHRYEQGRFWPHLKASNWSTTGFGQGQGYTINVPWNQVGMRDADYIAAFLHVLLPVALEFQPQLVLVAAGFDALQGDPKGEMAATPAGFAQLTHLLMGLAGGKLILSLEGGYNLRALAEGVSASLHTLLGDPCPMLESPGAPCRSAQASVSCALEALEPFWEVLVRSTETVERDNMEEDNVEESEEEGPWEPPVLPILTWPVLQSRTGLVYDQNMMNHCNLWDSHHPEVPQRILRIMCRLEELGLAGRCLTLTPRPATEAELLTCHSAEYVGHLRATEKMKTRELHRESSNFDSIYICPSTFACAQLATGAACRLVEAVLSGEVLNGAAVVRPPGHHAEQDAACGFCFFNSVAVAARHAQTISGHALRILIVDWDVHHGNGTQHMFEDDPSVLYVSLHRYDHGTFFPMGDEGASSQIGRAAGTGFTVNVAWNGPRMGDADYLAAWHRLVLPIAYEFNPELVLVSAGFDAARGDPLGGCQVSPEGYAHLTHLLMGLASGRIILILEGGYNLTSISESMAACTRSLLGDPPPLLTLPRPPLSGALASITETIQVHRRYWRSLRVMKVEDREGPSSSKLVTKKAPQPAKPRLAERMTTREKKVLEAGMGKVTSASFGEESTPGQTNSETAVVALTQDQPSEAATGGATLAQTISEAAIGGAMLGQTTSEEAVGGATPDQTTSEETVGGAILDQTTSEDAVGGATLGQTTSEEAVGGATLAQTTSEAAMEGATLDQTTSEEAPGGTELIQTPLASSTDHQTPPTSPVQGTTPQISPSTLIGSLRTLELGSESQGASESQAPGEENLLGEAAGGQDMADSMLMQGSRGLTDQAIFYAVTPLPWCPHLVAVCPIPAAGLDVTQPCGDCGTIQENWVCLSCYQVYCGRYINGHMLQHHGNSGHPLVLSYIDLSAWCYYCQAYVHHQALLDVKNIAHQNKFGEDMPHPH
The experiment in a line: Microfluidic chip-based HDAC inhibition assay (Calliper off-chip mobility shift), HDAC6. It counts as biochemical.

Text: Test compounds were screened against human histone deacetylases (HDACs) 1, 3, 6, and 8 using the Calliper off-chip mobility shift assay technology. All HDACs were purchased from BPS Bioscience and four selective substrates were used according to the targeted isozyme. […] Buffers components, except for CR-3 (LabChip Coating Reagent 3, purchased from PerkinElmer, Product Number 760050) and Panobinostat (LBH589, purchased from ApexBio Technology)[35]^,[36] were purchased from Sigma Aldrich. […] (all purchased from Selleck Chemicals).

Usually IC50 stands for the point on the concentration scale where inhibition reaches its midpoint. In the case of `O=C(CCCCO/N=C/c1cnc2ccccc2c1)NO` [Compound 2f, (E)-N-hydroxy-5-(((quinolin-3-ylmethylene)amino)oxy)pentanamide], the IC50 was 10 nM. Further, the “times less active than SAHA on HDAC6” value (compared with SAHA) is 7 times.
